Source: the kinase profiling compilation of Christmann-Franck et al. (2016)

Key:
Assay in all cases: radiometric filter-binding kinase assay, Kinase HotSpot
Settings in all cases: compound 0.5 µM; ATP 10 µM
ABL2 (human) = ABL2 (human) (UniProt P42684)
ADRBK1 (human) = ADRBK1 (human) (UniProt P25098)
ADRBK2 (human) = ADRBK2 (human) (UniProt P35626)
BMX (human) = BMX (human) (UniProt P51813)
BTK (human) = BTK (human) (UniProt Q06187)
CAMK2A (human) = CAMK2A (human) (UniProt Q9UQM7)
CAMKK1 (human) = CAMKK1 (human) (UniProt Q8N5S9)
CDC42BPA (human) = CDC42BPA (human) (UniProt Q5VT25)
CDC42BPB (human) = CDC42BPB (human) (UniProt Q9Y5S2)
CDK5 CDK5R1 p25 (human) = CDK5 CDK5R1 p25 (human) (UniProt Q00535+Q15078)
CDK9 CCNK (human) = CDK9 CCNK (human) (UniProt O75909+P50750)
CSK (human) = CSK (human) (UniProt P41240)
DSTYK (human) = DSTYK (human) (UniProt Q6XUX3)
Chain of DSTYK (human) (Q6XUX3 whole entry, looked up): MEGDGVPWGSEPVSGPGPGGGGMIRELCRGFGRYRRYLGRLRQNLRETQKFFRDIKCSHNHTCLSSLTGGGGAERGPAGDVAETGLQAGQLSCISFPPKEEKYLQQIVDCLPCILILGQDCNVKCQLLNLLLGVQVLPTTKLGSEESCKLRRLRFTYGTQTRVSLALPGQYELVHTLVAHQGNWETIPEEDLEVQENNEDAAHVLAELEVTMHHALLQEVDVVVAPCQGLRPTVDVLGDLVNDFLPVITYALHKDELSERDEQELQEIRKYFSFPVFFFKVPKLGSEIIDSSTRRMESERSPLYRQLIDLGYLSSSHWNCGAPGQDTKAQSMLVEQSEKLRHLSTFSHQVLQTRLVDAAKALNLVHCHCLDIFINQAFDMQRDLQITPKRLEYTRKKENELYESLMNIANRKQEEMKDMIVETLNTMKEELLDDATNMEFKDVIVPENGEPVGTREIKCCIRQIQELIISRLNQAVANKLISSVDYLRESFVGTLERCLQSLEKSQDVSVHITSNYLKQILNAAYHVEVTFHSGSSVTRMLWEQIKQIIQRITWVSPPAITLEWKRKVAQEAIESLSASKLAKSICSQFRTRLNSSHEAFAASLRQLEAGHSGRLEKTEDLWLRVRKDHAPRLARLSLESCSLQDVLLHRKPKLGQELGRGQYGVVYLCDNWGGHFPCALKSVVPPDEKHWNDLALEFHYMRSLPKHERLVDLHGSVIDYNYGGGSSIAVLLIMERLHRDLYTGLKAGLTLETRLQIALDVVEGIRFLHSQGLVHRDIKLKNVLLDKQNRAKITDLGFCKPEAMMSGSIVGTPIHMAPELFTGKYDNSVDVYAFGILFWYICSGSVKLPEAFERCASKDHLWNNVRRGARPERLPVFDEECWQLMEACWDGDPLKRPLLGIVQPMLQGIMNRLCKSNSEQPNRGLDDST

EPHA1 (human) = EPHA1 (human) (UniProt P21709)
Chain of EPHA1 (human) (P21709 whole entry, looked up): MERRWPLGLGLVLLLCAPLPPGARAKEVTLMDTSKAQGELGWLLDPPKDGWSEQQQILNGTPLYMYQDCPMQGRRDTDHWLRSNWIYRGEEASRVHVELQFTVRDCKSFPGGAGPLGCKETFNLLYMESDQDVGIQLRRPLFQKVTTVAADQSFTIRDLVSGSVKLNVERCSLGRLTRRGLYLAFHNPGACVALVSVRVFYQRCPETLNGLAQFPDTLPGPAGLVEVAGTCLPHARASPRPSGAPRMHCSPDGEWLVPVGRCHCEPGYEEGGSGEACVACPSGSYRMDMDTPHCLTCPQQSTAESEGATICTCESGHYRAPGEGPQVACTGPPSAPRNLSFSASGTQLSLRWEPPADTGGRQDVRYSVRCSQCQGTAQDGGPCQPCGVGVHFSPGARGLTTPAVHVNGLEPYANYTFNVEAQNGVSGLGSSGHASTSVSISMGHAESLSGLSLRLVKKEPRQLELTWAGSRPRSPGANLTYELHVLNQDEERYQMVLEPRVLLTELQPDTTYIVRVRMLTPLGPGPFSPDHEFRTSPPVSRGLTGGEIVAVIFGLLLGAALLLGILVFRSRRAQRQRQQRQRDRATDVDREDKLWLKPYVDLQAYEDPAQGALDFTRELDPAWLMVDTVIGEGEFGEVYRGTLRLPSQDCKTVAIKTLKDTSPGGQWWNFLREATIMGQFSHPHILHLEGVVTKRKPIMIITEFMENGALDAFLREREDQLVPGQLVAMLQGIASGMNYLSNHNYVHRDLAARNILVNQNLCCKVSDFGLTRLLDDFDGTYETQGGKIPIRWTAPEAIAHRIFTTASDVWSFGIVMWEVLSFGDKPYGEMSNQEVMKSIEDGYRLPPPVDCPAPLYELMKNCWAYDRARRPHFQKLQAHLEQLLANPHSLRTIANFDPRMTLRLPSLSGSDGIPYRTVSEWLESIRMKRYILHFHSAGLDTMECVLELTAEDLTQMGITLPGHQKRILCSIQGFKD

FGR (human) = FGR (human) (UniProt P09769)
FLT1 (human) = FLT1 (human) (UniProt P17948)
GRK7 (human) = GRK7 (human) (UniProt Q8WTQ7)
HIPK2 (human) = HIPK2 (human) (UniProt Q9H2X6)
IRAK4 (human) = IRAK4 (human) (UniProt Q9NWZ3)
ITK (human) = ITK (human) (UniProt Q08881)
LRRK2 (human) = LRRK2 (human) (UniProt Q5S007)
MAP3K2 (human) = MAP3K2 (human) (UniProt Q9Y2U5)
MARK1 (human) = MARK1 (human) (UniProt Q9P0L2)
MARK4 (human) = MARK4 (human) (UniProt Q96L34)
MATK (human) = MATK (human) (UniProt P42679)
MLTK (human) = MLTK (human) (UniProt Q9NYL2)
Chain of MLTK (human) (Q9NYL2 whole entry, looked up): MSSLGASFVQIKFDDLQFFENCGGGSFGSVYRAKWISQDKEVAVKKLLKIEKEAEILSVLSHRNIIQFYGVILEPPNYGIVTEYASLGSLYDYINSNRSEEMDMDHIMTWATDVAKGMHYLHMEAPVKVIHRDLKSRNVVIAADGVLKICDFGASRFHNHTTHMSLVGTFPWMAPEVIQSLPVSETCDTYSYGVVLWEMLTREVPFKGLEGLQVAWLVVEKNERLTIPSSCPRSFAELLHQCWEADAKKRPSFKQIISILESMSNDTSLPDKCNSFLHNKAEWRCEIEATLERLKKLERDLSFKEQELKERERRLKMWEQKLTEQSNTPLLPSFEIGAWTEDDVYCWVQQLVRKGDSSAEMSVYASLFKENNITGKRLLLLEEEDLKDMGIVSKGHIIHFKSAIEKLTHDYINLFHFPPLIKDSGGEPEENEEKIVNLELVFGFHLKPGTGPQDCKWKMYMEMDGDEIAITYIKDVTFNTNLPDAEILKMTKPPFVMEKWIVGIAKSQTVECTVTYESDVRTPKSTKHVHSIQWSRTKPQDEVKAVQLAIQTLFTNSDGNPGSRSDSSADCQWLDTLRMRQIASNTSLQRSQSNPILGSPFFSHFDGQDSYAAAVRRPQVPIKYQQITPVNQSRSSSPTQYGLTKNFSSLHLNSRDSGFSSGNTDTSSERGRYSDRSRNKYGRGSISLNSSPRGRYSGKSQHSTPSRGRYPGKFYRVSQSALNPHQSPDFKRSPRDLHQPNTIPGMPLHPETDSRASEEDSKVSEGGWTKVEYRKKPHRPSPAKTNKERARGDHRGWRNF

MYLK (human) = MYLK (human) (UniProt Q15746)
NEK4 (human) = NEK4 (human) (UniProt P51957)
PAK4 (human) = PAK4 (human) (UniProt O96013)
PAK6 (human) = PAK6 (human) (UniProt Q9NQU5)
PLK3 (human) = PLK3 (human) (UniProt Q9H4B4)
PRKCB1 (human) = PRKCB1 (human) (UniProt P05771)
PRKCD (human) = PRKCD (human) (UniProt Q05655)
PRKCE (human) = PRKCE (human) (UniProt Q02156)
Chain of PRKCE (human) (Q02156 whole entry, looked up): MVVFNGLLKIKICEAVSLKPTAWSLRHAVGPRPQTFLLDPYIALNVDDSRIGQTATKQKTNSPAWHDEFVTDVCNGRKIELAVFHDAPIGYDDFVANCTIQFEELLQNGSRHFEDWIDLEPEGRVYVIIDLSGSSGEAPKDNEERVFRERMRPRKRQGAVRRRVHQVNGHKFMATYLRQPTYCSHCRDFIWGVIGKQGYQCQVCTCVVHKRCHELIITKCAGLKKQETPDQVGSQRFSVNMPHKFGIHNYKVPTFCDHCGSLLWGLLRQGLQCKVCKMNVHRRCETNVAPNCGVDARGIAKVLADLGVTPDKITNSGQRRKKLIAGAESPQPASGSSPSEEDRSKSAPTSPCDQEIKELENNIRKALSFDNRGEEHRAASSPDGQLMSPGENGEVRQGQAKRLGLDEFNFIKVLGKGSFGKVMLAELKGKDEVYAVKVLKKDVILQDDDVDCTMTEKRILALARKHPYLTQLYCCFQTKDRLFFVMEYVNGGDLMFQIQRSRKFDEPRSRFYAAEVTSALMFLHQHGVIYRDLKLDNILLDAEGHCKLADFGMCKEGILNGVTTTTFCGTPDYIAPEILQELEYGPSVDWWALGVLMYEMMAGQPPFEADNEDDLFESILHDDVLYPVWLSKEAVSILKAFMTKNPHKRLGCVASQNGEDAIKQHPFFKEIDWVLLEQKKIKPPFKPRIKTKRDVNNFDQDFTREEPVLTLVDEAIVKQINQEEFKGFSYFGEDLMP

PRKCG (human) = PRKCG (human) (UniProt P05129)
PRKCI (human) = PRKCI (human) (UniProt P41743)
SGK2 (human) = SGK2 (human) (UniProt Q9HBY8)
Chain of SGK2 (human) (Q9HBY8 whole entry, looked up): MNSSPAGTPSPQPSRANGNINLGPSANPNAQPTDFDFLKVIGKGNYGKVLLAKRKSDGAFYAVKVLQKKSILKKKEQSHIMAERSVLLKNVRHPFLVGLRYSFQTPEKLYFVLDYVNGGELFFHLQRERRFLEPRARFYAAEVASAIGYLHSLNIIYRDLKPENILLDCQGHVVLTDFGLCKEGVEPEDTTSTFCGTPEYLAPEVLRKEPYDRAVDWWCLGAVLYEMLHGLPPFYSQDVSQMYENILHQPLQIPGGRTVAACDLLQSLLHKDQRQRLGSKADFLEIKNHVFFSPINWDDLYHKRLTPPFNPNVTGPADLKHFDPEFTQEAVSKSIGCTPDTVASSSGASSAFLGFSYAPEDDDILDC

SGK3 (human) = SGK3 (human) (UniProt Q96BR1)
Chain of SGK3 (human) (Q96BR1 whole entry, looked up): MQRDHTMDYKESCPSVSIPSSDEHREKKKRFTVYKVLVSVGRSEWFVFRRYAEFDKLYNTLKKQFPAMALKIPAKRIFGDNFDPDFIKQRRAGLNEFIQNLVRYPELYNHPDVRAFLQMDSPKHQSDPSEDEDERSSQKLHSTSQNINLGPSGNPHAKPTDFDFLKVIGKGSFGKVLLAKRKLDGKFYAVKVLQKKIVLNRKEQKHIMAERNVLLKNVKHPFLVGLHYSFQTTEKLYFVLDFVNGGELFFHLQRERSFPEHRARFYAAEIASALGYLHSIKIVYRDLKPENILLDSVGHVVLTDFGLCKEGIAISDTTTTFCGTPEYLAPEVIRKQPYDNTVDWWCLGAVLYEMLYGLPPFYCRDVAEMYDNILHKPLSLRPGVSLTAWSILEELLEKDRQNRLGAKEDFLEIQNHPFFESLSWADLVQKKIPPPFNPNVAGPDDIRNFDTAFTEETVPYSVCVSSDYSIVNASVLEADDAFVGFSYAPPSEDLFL

STK10 (human) = STK10 (human) (UniProt O94804)
TAOK3 (human) = TAOK3 (human) (UniProt Q9H2K8)
YES1 (human) = YES1 (human) (UniProt P07947)
ZAP70 (human) = ZAP70 (human) (UniProt P43403)
Chain of ZAP70 (human) (P43403 whole entry, looked up): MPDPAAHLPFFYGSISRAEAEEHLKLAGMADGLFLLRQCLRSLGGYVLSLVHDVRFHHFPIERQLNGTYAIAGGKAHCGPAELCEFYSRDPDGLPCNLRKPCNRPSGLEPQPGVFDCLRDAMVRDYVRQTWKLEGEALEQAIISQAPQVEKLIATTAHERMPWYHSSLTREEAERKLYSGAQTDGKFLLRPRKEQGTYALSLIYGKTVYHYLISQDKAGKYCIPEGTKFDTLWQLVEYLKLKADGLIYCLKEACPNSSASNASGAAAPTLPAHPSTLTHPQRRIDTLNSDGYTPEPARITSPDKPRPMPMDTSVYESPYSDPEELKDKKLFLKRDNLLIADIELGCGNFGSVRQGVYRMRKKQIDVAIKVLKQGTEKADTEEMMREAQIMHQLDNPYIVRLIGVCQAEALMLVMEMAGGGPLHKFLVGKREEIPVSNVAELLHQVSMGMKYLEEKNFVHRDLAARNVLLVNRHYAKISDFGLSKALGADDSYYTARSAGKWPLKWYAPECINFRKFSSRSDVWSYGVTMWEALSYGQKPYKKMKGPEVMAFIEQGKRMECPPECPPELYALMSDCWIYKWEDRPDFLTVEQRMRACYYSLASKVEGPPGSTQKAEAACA

`COc1ccc2c(c1)c(C1=C(c3c[nH]c4ccccc34)C(=O)NC1=O)cn2CCCN(C)C` showed a residual activity (ABL2 (human)) of 77.7%, a residual activity (ADRBK1 (human)) of 99% and a residual activity (ADRBK2 (human)) of 96.3%. The residual activity (BMX (human)) was 96.3%, the residual activity (BTK (human)) was 90.2% and the residual activity (CAMK2A (human)) was 102%. For the same compound, the residual activity (CAMKK1 (human)) was 94.8%, the residual activity (CDC42BPA (human)) was 89.2% and the residual activity (CDC42BPB (human)) was 89.4%. For the same compound, the residual activity (CDK5 CDK5R1 p25 (human)) was 114%, the residual activity (CDK9 CCNK (human)) was 54.6% and the residual activity (CSK (human)) was 84%. It also gave a residual activity (DSTYK (human)) of 82.8%, a residual activity (EPHA1 (human)) of 76.2% and a residual activity (FGR (human)) of 107%. It also gave a residual activity (FLT1 (human)) of 22%, a residual activity (GRK7 (human)) of 106% and a residual activity (HIPK2 (human)) of 96.3%. The residual activity (IRAK4 (human)) was 91.2%, the residual activity (ITK (human)) was 70.4% and the residual activity (LRRK2 (human)) was 87%. The residual activity (MAP3K2 (human)) was 80.6%, the residual activity (MARK1 (human)) was 93.2% and the residual activity (MARK4 (human)) was 95.9%. For the same compound, the residual activity (MATK (human)) was 99.3%, the residual activity (MLTK (human)) was 95.9% and the residual activity (MYLK (human)) was 66.9%. The residual activity (NEK4 (human)) was 90.7%, the residual activity (PAK4 (human)) was 94.8% and the residual activity (PAK6 (human)) was 70.4%. For the same compound, the residual activity (PLK3 (human)) was 93%, the residual activity (PRKCB1 (human)) was 19.3% and the residual activity (PRKCD (human)) was 1.67%. It also gave a residual activity (PRKCE (human)) of 14.6%, a residual activity (PRKCG (human)) of 54% and a residual activity (PRKCI (human)) of 67.6%. It also gave a residual activity (SGK2 (human)) of 92.6%, a residual activity (SGK3 (human)) of 101% and a residual activity (STK10 (human)) of 31.7%. It also gave a residual activity (TAOK3 (human)) of 78.2%, a residual activity (YES1 (human)) of 90.4% and a residual activity (ZAP70 (human)) of 90.3%.
Compound `CC(C)(C)c1cc(C=C(C#N)C#N)cc(Br)c1O` has a residual activity (ABL2 (human)) of 57.1%, a residual activity (ADRBK1 (human)) of 83.7% and a residual activity (ADRBK2 (human)) of 98%. The residual activity (BMX (human)) was 113%, the residual activity (BTK (human)) was 101% and the residual activity (CAMK2A (human)) was 104%. It also gave a residual activity (CAMKK1 (human)) of 120%, a residual activity (CDC42BPA (human)) of 101% and a residual activity (CDC42BPB (human)) of 103%. It also gave a residual activity (CDK5 CDK5R1 p25 (human)) of 98.2%, a residual activity (CDK9 CCNK (human)) of 109% and a residual activity (CSK (human)) of 106%. It also gave a residual activity (DSTYK (human)) of 105%, a residual activity (EPHA1 (human)) of 85.1% and a residual activity (FGR (human)) of 75.4%. It also gave a residual activity (FLT1 (human)) of 92.5%, a residual activity (GRK7 (human)) of 107% and a residual activity (HIPK2 (human)) of 110%. For the same compound, the residual activity (IRAK4 (human)) was 182%, the residual activity (ITK (human)) was 98.4% and the residual activity (LRRK2 (human)) was 109%. The residual activity (MAP3K2 (human)) was 93.7%, the residual activity (MARK1 (human)) was 98.8% and the residual activity (MARK4 (human)) was 103%. The residual activity (MATK (human)) was 102%, the residual activity (MLTK (human)) was 91.2% and the residual activity (MYLK (human)) was 90.6%. For the same compound, the residual activity (NEK4 (human)) was 93.7%, the residual activity (PAK4 (human)) was 124% and the residual activity (PAK6 (human)) was 101%. It also gave a residual activity (PLK3 (human)) of 94.6%, a residual activity (PRKCB1 (human)) of 102% and a residual activity (PRKCD (human)) of 83%. For the same compound, the residual activity (PRKCE (human)) was 108%, the residual activity (PRKCG (human)) was 90.4% and the residual activity (PRKCI (human)) was 100%. The residual activity (SGK2 (human)) was 120%, the residual activity (SGK3 (human)) was 97.7% and the residual activity (STK10 (human)) was 95.4%. The residual activity (TAOK3 (human)) was 122%, the residual activity (YES1 (human)) was 83% and the residual activity (ZAP70 (human)) was 91.6%.
`NC(=O)c1cccc(-c2cc(Nc3ccc(OC(F)(F)F)cc3)ncn2)c1` was tested, and the residual activity (ABL2 (human)) was 106%, the residual activity (ADRBK1 (human)) was 96.1% and the residual activity (ADRBK2 (human)) was 80.5%. It also gave a residual activity (BMX (human)) of 107%, a residual activity (BTK (human)) of 99.1% and a residual activity (CAMK2A (human)) of 102%. It also gave a residual activity (CAMKK1 (human)) of 103%, a residual activity (CDC42BPA (human)) of 99.3% and a residual activity (CDC42BPB (human)) of 93.2%. The residual activity (CDK5 CDK5R1 p25 (human)) was 80.1%, the residual activity (CDK9 CCNK (human)) was 106% and the residual activity (CSK (human)) was 104%. The residual activity (DSTYK (human)) was 95.8%, the residual activity (EPHA1 (human)) was 90.1% and the residual activity (FGR (human)) was 96.8%. The residual activity (FLT1 (human)) was 98.4%, the residual activity (GRK7 (human)) was 97.1% and the residual activity (HIPK2 (human)) was 102%. The residual activity (IRAK4 (human)) was 159%, the residual activity (ITK (human)) was 95.3% and the residual activity (LRRK2 (human)) was 108%. For the same compound, the residual activity (MAP3K2 (human)) was 79.5%, the residual activity (MARK1 (human)) was 94.7% and the residual activity (MARK4 (human)) was 98.1%. It also gave a residual activity (MATK (human)) of 100%, a residual activity (MLTK (human)) of 102% and a residual activity (MYLK (human)) of 91.9%. The residual activity (NEK4 (human)) was 98%, the residual activity (PAK4 (human)) was 94.6% and the residual activity (PAK6 (human)) was 102%. It also gave a residual activity (PLK3 (human)) of 96.9%, a residual activity (PRKCB1 (human)) of 97.4% and a residual activity (PRKCD (human)) of 83.1%. For the same compound, the residual activity (PRKCE (human)) was 111%, the residual activity (PRKCG (human)) was 83.6% and the residual activity (PRKCI (human)) was 99.6%. The residual activity (SGK2 (human)) was 116%, the residual activity (SGK3 (human)) was 104% and the residual activity (STK10 (human)) was 101%. For the same compound, the residual activity (TAOK3 (human)) was 107%, the residual activity (YES1 (human)) was 87.4% and the residual activity (ZAP70 (human)) was 97.1%.
